Several values for one entry are separate records, joined by “and”; a condition that tells them apart may be missing. Equal values may be shown once.
Assays:
[1] = system: Lmna G609G/+ mouse; assay: Radiological examination (kyphosis index, incisors); assay type: in vivo; settings: Lmna G609G/+ mice
Method: The radiographic study was performed in anaesthetized living mice using a human radiographic system (College of Veterinary Medicine, Gyeongsang National University, Korea). A single radiograph of right lateral view of the whole body was obtained. Age-matched (at 41 weeks old) Lmna^+/+ mice, untreated Lamn^G609G/+ mice, and progerinin-treated Lmna^G609G/+ mice were radiographed. The images were recorded in DICOM format and then transferred to a personal computer. KI[28],[30] and abnormalities of the incisors were evaluated. Data processing and analysis were performed using a RadiAnt DICOM system in Institute of Animal Medicine, College of Veterinary Medicine, Gyeongsang National University (Jinju, Korea). […]
LmnaG609G transgenic mice at 41 weeks of age. Abundant adipose tissues are present in abdomens of
Lmna+/+ and progerin- treated LmnaG609G/+ mice compared to untreated LmnaG609G/+ mice. Kyphosis Index
(KI) index was accessed after 8-week treatment.
untreated LmnaG609G/+, and D011- treated LmnaG609G/+ mice at 41 weeks of age (unpaired t-test), *p < 0.05.
Severity of kyphosis depends on genotype and treatment of SLC-D011. H. Gross morphology of age-

[2] = system: Lmna G609G/+ mouse; assay: Grip strength test; assay type: in vivo; settings: LMNA G609G/+ mice, 41-week-old, SLC-D011 for 6 weeks
From the text: Fig. 4 Oral administration of SLC-D011 suppresses premature aging features. A Gross morphology of SLC-D011-treated (D011) mice at 8 weeks old. Body size of treated mouse was apparently larger than that of the untreated control (Con) mouse. B Oral administration of SLC-D011 increases body weights of Lmna^G609G/G609G mice. Compared with untreated control group, body weight of treated mouse was increased by ~35%, *p < 0.05. C Oral administration of SLC-D011 extends the life span of Lmna^G609G/G609G mouse. SLC-D011 in monoolein-based solution was treated by oral gavage (50 mg/kg, daily) from 5 weeks old. […] E Grip test of Lmna^G609G/+ mice at 41-week-old was performed after administration of SLC-D011 for 6 weeks. The test was repeated 10 times for each mouse (n > 4), **p < 0.001. Data are presented as mean ± SD. […] H Anti-aging effects of single treatment of SLC-D011 or lonafarnib were measured in HGPS patients-derived cells (AG11513, AG03199, AG11498, and AG03198, Coriell Cell Repositories). […] No unit is printed with them; the x axis reads Age (weeks). / Panel C: Ave=16.8 / Max=18 are printed beside the dashed curve of the control (Con). […]
For analysis of heart rate, mice were anesthetized with 2.5% isoflurane and monitored using LOGIQ E9 (GE Healthcare). […] Each estimate given corresponded to total reads measured ten times, excluding the minimum and the maximum from each group of animals.

[3] = system: Lmna G609G/G609G mouse; parameters: method as in PMID 27617860; settings: intraperitoneal injection; cited from earlier work

SMILES | Abnormalities of incisors ([1]; 41 weeks of age) | Kyphosis index (KI) ([1]; 41 weeks of age) | Kyphosis index ([1]; Ave) | Kyphosis index ([1]; individual mouse) | Grip strength relative to LMNA +/+ (=1) [2] | Force (%) ([2]; LMNA +/+ = 100) | Extension of life span [3] | Increase of life span [3]
CC1(C)Oc2cc3oc(=O)ccc3cc2C[C@@H]1OC/C=C/c1ccccc1 [SLC-D011] | ameliorated these abnormalities | recovered | 4.2583 | 3.759 and 3.649 and 5.045 and 4.58 | 0.9456 | 94.5577 |  | 
CC1(C)Oc2cc3oc(=O)ccc3cc2CC1OC(=O)C=Cc1cccnc1 (centres unmarked) [JH4] |  |  |  |  |  |  | ~ 4 weeks | ~ 25%
